Measurements taken from patent US9981928B2, “Aryl sulfide derivatives and aryl sulfoxide derivatives as acaricides and insecticides” (BAYER CROPSCIENCE AKTIENGESELLSCHAFT, priority 2013, dated 2018).
Values joined by “and” are separate entries in the source; they are usually repeats but may differ in a detail not shown here. Identical values can stand only once. Like-named read-outs stand apart in the source and are kept apart here.

Assays:
[1] = tested on: greenhouse red spider mite (Tetranychus urticae); assay: Tetranychus urticae spray test, OP-resistant (TETRUR), bean leaf disks; type: in vivo; details: bean leaf disks, after 6 days
Protocol: Tetranychus urticae—Spray Test, OP-Resistant (TETRUR)
Solvent: 78.0 parts by weight of acetone
• 1.5 parts by weight of dimethylformamide Emulsifier: alkylaryl polyglycol ether
To produce a suitable preparation of active compound, 1 part by weight of active compound is dissolved using the stated parts by weight of solvent and made up with water containing an emulsifier concentration of 1000 ppm until the desired concentration is attained. To produce further test concentrations, the preparation is diluted with emulsifier-containing water.
disks of bean leaves (Phaseolus vulgaris) infested with all stages of the greenhouse red spider mite (Tetranychus urticae) are sprayed with an active compound preparation of the desired concentration.
After 6 days, the efficacy in % is determined. 100% means that all the spider mites have been killed; 0% means that none of the spider mites have been killed.

[2] = log P determination by HPLC on reversed-phase columns (C 18), analogously to OECD Guideline 117; type: physicochemical; details: for logP (HCOOH): LC-MS in the acidic range, pH 2.7, 0.1% aqueous formic acid / acetonitrile; for logP (HCOOH) / logP (neutral): HPLC reversed-phase C 18; for logP (neutral): LC-MS in the neutral range, pH 7.8, 0.001 molar aqueous ammonium hydrogencarbonate / acetonitrile; for chromatographic logP: reversed-phase C18 HPLC column
Summary of the method: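 Reversed-phase C18 HPLC per OECD 117 with LC-MS detection and a linear 10→95% acetonitrile gradient. Acidic log P run at pH 2.7 with 0.1% formic acid in both eluents. Neutral log P run at pH 7.8 with 0.001 M aqueous ammonium hydrogencarbonate.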

[3] = Tetranychus urticae, foliar, 144 h, application rate 500 g/ha, read-out: efficacy in %
[4] = acidic range, pH 2.7, 0.1% aqueous formic acid and acetonitrile, read-out: log P[a] / log P(HCOOH)
[5] = neutral range, pH 7.8, 0.001 molar aqueous ammonium hydrogencarbonate and acetonitrile, read-out: log P[b] / log P(neutral)

Compound | efficacy in % ([1]; application rate 500 g/ha) | logP (HCOOH) [2] | logP (neutral) [2] | pest or weed control at 500 g/ha [1, 3] [%] | chromatographic logP [2, 4] | chromatographic logP [2, 5] | efficacy in % ([1]; application rate 100 g/ha) [%] | pest or weed control at 100 g/ha ([1]; Tetranychus urticae, foliar, 144 h, application rate 100 g/ha, read-out: efficacy in %) [%]
Cc1cc(F)c(-n2c(=O)n(CC3CC3)c(=O)n2C)cc1SCC(F)(F)F [Example 161] | 100% | 3.39 | 3.34 | – | – | – | – | –
Cc1cc(F)c(N2CC(C)OC2=O)cc1[S+]([O-])CC(F)(F)F (stereo not shown) [Example 109, 3-[2-Fluoro-4-methyl-5-(2,2,2-trifluoroethylsulfinyl)phenyl]-5-methyloxazolidin-2-one] | – | – | – | 100 | 1.93 | 1.89 | – | –
CCn1c(=O)[nH]n(-c2cc(SCC(F)(F)F)c(C)cc2F)c1=O [Example 85] | 90% | 2.43 | 0.86 | – | – | – | – | –
Cc1cc(F)c(N2C(=O)OCC2C)cc1SCC(F)(F)F (stereo not shown) [Example 108, 3-[2-Fluoro-4-methyl-5-(2,2,2-trifluoroethylsulfanyl)phenyl]-4-methyloxazolidin-2-one] | – | – | – | 90 | 2.92 | – | – | –
COCCCn1c(=O)n(C)n(-c2cc([S+]([O-])CC(F)(F)F)c(C)cc2F)c1=O (stereo not shown) [Example 170] | 90% | 1.97 | 1.98 | – | – | – | – | –
Cc1cc(F)c(-n2c(=O)n(CC3CC3)c(=O)n2C)cc1[S+]([O-])CC(F)(F)F (stereo not shown) [Example 169] | – | 2.30 | 2.33 | – | – | – | 90 | –
Cc1cc(C)c(N2C(=O)CSC2=NC2CC2)cc1SCC(F)(F)F [Example 112] | – | 3.65 | 3.65 | – | – | – | 100 | –
Cc1cc(F)c(N2C(=O)CN(Cc3ccccc3)C2=O)cc1SCC(F)(F)F [Example 204] | 100% | 3.49 | 3.48 | – | – | – | – | –
Cc1cc(F)c(N2C(=O)C(=O)N(CC(F)(F)F)C2=S)cc1SCC(F)(F)F [Example 189] | 90% | 3.95 | – | – | – | – | – | –
Cc1cc(F)c(N2C(=O)N(C3CC3)C(=O)C2C)cc1[S+]([O-])CC(F)(F)F (stereo not shown) [Example 215] | 100% | 2.15 | – | – | – | – | – | –
C=CCn1c(=O)n(-c2cc([S+]([O-])CC(F)(F)F)c(C)cc2F)c(=O)n1C (racemic) [Example 124] | 100% | 2.00 | – | – | – | – | – | –
CCn1c(=O)n(C)c(=O)n1-c1cc([S+]([O-])CC(F)(F)F)c(C)cc1F (stereo not shown) [Example 98] | 90% | 1.93 | 1.91 | – | – | – | – | –
Cc1ccc(-n2c(=O)n(C)c(=O)n2C)cc1[S+]([O-])CC(F)(F)F (stereo not shown) [Example 21, 1,4-Dimethyl-2-{4-methyl-3-[(2,2,2-trifluoroethyl)sulfinyl]phenyl}-1,2,4-triazolidine-3,5-dione] | – | – | – | 100 | 1.63 | 1.63 | – | –
Cc1cc(F)c(-n2c(=O)n(C)n(C)c2=O)cc1SCC(F)(F)F [Example 116, 4-{2-Fluoro-4-methyl-5-[(2,2,2-trifluoroethyl)sulfanyl]phenyl}-1,2-dimethyl-1,2,4-triazolidine-3,5-dione] | – | – | – | 100 | 2.4 | 2.39 | – | –
Cc1cc(F)c(-n2c(=O)n(CC(F)F)c(=O)n2CC(F)(F)F)cc1[S+]([O-])CC(F)(F)F (stereo not shown) [Example 168] | 90% | 2.60 | 2.58 | – | – | – | – | –
Cc1cc(F)c(-n2[nH]c(=O)n(C)c2=O)cc1SCC(F)(F)F [Example 55] | 90% | 2.09 | 0.60 | – | – | – | – | –
Cc1ccc(-n2c(=O)n(C3CC3)c(=O)n2CC(C)C)cc1[S+]([O-])CC(F)(F)F (stereo not shown) [Example 50] | 90% | 3.58 | 3.47 | – | – | – | – | –
C=CCn1c(=O)n(C2CC2)c(=O)n1-c1cc(SCC(F)(F)F)c(C)cc1F [Example 130] | 100% | 3.31 | 3.28 | – | – | – | – | –
C=CCn1c(=O)n(C2CC2)c(=O)n1-c1cc([S+]([O-])CC(F)(F)F)c(C)cc1F (stereo not shown) [Example 165] | 90% | 2.32 | 2.30 | – | – | – | – | –
Cc1cc(F)c(N2C(=O)C(=O)N(CC(C)C)C2=S)cc1[S+]([O-])CC(F)(F)F (stereo not shown) [Example 194] | 90% | 3.56 | 3.53 | – | – | – | – | –
Cc1cc(F)c(-n2c(=O)n(C3CC3)c(=O)n2CC(F)(F)F)cc1[S+]([O-])CC(F)(F)F (stereo not shown) [Example 164] | 90% | 2.58 | 2.54 | – | – | – | – | –
Cc1cc(F)c(N2C(=O)C(=O)N(C(C)(C)C)C2=S)cc1SCC(F)(F)F [Example 193] | 100% and 90% | 4.50 | 4.42 | – | – | – | – | –

Compound | efficacy in % ([1]; application rate 500 g/ha) | logP (HCOOH) [2] | logP (neutral) [2] | pest or weed control at 500 g/ha [1, 3] [%] | chromatographic logP [2, 4] | chromatographic logP [2, 5] | efficacy in % ([1]; application rate 100 g/ha) [%] | pest or weed control at 100 g/ha ([1]; Tetranychus urticae, foliar, 144 h, application rate 100 g/ha, read-out: efficacy in %) [%]
C#CCn1c(=O)n(-c2cc(SCC(F)(F)F)c(C)cc2F)c(=O)n1C [Example 121] | 100% | 2.81 | – | – | – | – | – | –
Cc1cc(F)c(N2C(=O)C(C)(C)C(=O)N2c2ccccc2)cc1SCC(F)(F)F [Example 173] | 90% | 3.64 | 3.58 | – | – | – | – | –
CCCn1c(=O)n(C)n(-c2cc(SCC(F)(F)F)c(C)cc2F)c1=O [Example 160] | – | 3.28 | 3.22 | – | – | – | 100 | –
Cn1c(=O)n(C)n(-c2ccc(Br)c(SCC(F)(F)F)c2)c1=O [Example 68] | 100% | 2.83 | 2.78 | – | – | – | – | –
Cn1c(=O)n(C)n(-c2ccc(Cl)c(SCC(F)(F)F)c2)c1=O [Example 31] | 90% | 2.72 | 2.69 | – | – | – | – | –
CCn1c(=O)n(C(C)(C)C)c(=O)n1-c1cc(SCC(F)(F)F)c(C)cc1F [Example 99] | 90% | 4.21 | 4.16 | – | – | – | – | –
Cc1cc(F)c(-n2c(=O)n(-c3ccccc3)c(=O)n2C)cc1[S+]([O-])CC(F)(F)F (stereo not shown) [Example 163] | 90% | 2.44 | 2.38 | – | – | – | – | –
Cc1ccc(-n2c(=O)n(C(C)(C)C)c(=O)n2C(C)C)cc1SCC(F)(F)F [Example 135] | 90% | 4.77 | 4.70 | – | – | – | – | –
Cc1cc(F)c(N2C(=O)C(C)(C)C(=O)N2C)cc1SCC(F)(F)F [Example 174, 1-{2-Fluoro-4-methyl-5-[(2,2,2-trifluoroethyl)sulfanyl]phenyl}-2,4,4-trimethylpyrazolidine-3,5-dione] | – | – | – | 100 | 2.84 | 2.79 | – | –
Cc1ccc(-n2c(=O)n(C3CC3)c(=O)n2C(C)C)cc1SCC(F)(F)F [Example 63] | 90% | 3.65 | 3.57 | – | – | – | – | –
Cc1cc(F)c(-n2c(=O)n(C3CC3)c(=O)n2C(C)C)cc1SCC(F)(F)F [Example 65] | 100% | 3.59 | 3.51 | – | – | – | – | –
CCn1c(=O)n(C(C)(C)C)c(=O)n1-c1ccc(C)c(SCC(F)(F)F)c1 [Example 134] | 100% | 4.32 | 4.27 | – | – | – | – | –
C#CCn1c(=O)n(-c2cc([S+]([O-])CC(F)(F)F)c(C)cc2F)c(=O)n1C (racemic) [Example 123] | 100% | 1.96 | – | – | – | – | – | –
Cc1cc(F)c(-n2[nH]c(=O)n(C3CC3)c2=O)cc1SCC(F)(F)F [Example 66] | 100% | 2.30 | 0.69 | – | – | – | – | –
Cc1cc(F)c(N2C(=O)N(C3CC3)C(=O)C2C)cc1SCC(F)(F)F (stereo not shown) [Example 214] | 100% | 3.12 | – | – | – | – | – | –
CCn1c(=O)n(C(C)C)c(=O)n1-c1ccc(C)c(SCC(F)(F)F)c1 [Example 133] | 100% | 3.77 | 3.73 | – | – | – | – | –
Cc1ccc(-n2c(=O)n(C(C)(C)C)c(=O)n2C)cc1[S+]([O-])CC(F)(F)F (stereo not shown) [Example 139] | 100% | 2.71 | 2.70 | – | – | – | – | –
Cc1cc(F)c(-n2c(=O)n(-c3cccc(C(F)(F)F)c3)c(=O)n2C)cc1SCC(F)(F)F [Example 76] | 100% | 4.09 | 3.94 | – | – | – | – | –
Cn1c(=O)n(C2CC2)c(=O)n1-c1ccc(Cl)c(SCC(F)(F)F)c1 [Example 40] | 100% | 3.04 | 2.98 | – | – | – | – | –
Cc1cc(F)c(N2C(=O)OC(C)(C)C2=O)cc1[S+]([O-])CC(F)(F)F (stereo not shown) [Example 110, 3-[2-Fluoro-4-methyl-5-(2,2,2-trifluoroethylsulfinyl)phenyl]-5,5-dimethyloxazolidine-2,4-dione] | – | – | – | – | 2.38 | – | – | 100
C=CCN1CC(=O)N(c2cc([S+]([O-])CC(F)(F)F)c(C)cc2F)C1=O (racemic) [Example 201] | 100% | 2.02 | 1.99 | – | – | – | – | –
